Laboratory results reported in patent publication US9682963B2, “Pyridine derivatives as soft rock inhibitors” (Amakem NV, priority 2013, dated 2017).

Key:
[1] = test system: MLC-T18/S19 phosphorylation in A7r5 cells (endogenous ROCK); assay: MLC phosphorylation assay (ELISA) in A7r5 cells; assay type: cell-based; details: Rattus norvegicus, serum-free medium, phospho-MLC-T18/S19 ELISA, read-out: EC50 MLC-PP
Description: Rat smooth muscle cell line A7r5 is used. The endogenous expression of ROCK results in a constitutive phosphorylation of the regulatory myosin light chain at T18/S19. A7r5 cells were plated in DMEM supplemented with 10% FCS in multiwall cell culture plates. After serum starvation overnight, cells were incubated with compounds in serum-free medium.
Quantification of MLC-T18/S19 phosphorylation is assessed in 96 well-plates via ELISA using a phospho-MLC-T18/S19 specific antibody and a secondary detection antibody. Raw data were converted into percent substrate phosphorylation relative to high controls, which were set to 100%. EC50 values were determined using GraphPad Prism 5.01 software using a nonlinear regression curve fit with variable hill slope.

[2] = Stability assay in human plasma; assay type: in vitro ADME; details: 1 μM in human plasma, LC-MS/MS; read-out: t½ human plasma
Description: Compounds are incubated at a concentration of 1 μM in human (or animal) plasma. Samples are taken at fixed time points and the remnant of compound is determined by LC-MS/MS after protein precipitation. Half life in table C.2.1 is expressed in minutes.

[3] = Stability towards drug metabolizing enzymes in lung S9; assay type: in vitro ADME; details: human, lung S9 fraction, lung S9 with NADPH, UDPGA, PAPS and GSH, read-out: t½ human lung S9
Description: A 1 μM solution of the ROCK inhibitors is incubated with a reaction mixture containing lung S9 (EDTA-free) as well as the cofactors NADPH, UDPGA, PAPS and GSH. Samples are collected at 0, 15, 30 and 60 minutes post incubation. Negative control samples incubated with ROCK inhibitors and S9 fraction in the absence of cofactors are run in parallel. By using LC-MS/MS analysis, the percent of ROCK compounds remaining at each time point, the metabolic half-life of the ROCK compounds (expressed in minutes in table C.2.2) and the metabolic half-life of the control compounds are determined.

[4] = Stability in human intestinal tissue homogenate; assay type: in vitro ADME; details: 40 mg/ml human intestinal homogenate, read-out: t½ (min) human
Description: A 1 μM solution of the ROCK inhibitors is incubated with human intestinal tissue homogenate (final concentration: 40 mg/ml) Samples are collected at 0, 20 and 60 minutes post incubation. By using LC-MS/MS analysis, the percent of ROCK compounds remaining at each time point, the metabolic half-life of the ROCK compounds (expressed in minutes in table C.2.3) and the metabolic half-life of control compounds are determined.

[5] = Stability in mouse intestinal homogenate; assay type: in vitro ADME; details: 40 mg/ml mouse intestinal homogenate, read-out: t½ (min) mouse
male BALB/c mice = assay: Acute LPS lung challenge model, BALF cell counts; assay type: in vivo, mouse; details: 0.1 and 0.01 mg/kg intratracheally 0.5 hr before LPS; BALF at 24 hrs; versus dexamethasone 1 mg/kg oral
Description: FIG. 1: Anti-inflammatory activity of Cpd4 in an acute LPS lung challenge model (mouse). Data is provided as bronchoalveolar lavage fluid (BALF) cell count (10^3/μl)±SEM. WBC: White Blood Cell. NEUT: Neutrophil. Dex: Dexamethasone control.
Selected compounds of the invention were evaluated in vivo in an acute LPS lung challenge model. Groups of 6 male BALB/c mice were used for each tested dose and for positive and negative controls. Under anesthesia with gas anesthetics (isoflurane), test substances and vehicle (0.9% NaCl, 1 mL/kg) were administered intratracheally (IT) to test animals 0.5 hr prior to challenge with ˜80 μg/kg of E. coli lipopolysaccharide (LPS, Sigma, serotype 055:B5, in sterile saline, 2 μg in 20 μL per mouse intratracheally). Dexamethasone, the positive control, at 1 mg/kg in 2% Tween 80 was given orally to test animals one hour before LPS challenge. Mice were anaesthetized with isoflurane at 24 hrs after LPS challenge, 0.5 mL of phosphate buffered saline (PBS, pH 7.4) was instilled into the lung twice through a tracheal cannula, after which about a total of 0.6˜0.8 mL of bronchoalveolar lavage fluid (BALF) was obtained. Total cell and neutrophils counts in BALF were then determined and one-way ANOVA followed by Dunnett's test was used to analyze difference between the vehicle control and treated groups. Significant difference is considered at P<0.05.

SMILES	EC50 [1] [nM]	half-life at 1 μM [2] [min]	half-life at 1 μM [3] [min]	half-life at 1 μM [4] [min]	half-life at 1 μM [5] [min]	anti-inflammatory activity (BALF WBC and neutrophil count) (male BALB/c mice)
NCc1ccc(C(=O)Nc2ccncc2F)cc1-c1cccc(C(=O)Nc2ccc(CNC3CCOC3=O)cc2)c1 (stereo not shown) [Cpd 1, 6-(aminomethyl)-N^3-(3-fluoropyridin-4-yl)-N^3′-(4-(((2-oxotetrahydrofuran-3-yl)amino)methyl)phenyl)-[1,1′-biphenyl]-3,3′-dicarboxamide]	100 to 1000	< 20	> 60			
NCc1ccc(C(=O)Nc2ccncc2F)cc1-c1cccc(C(=O)Nc2ccc(SC3CCOC3=O)cc2F)c1 (stereo not shown) [Cpd 12, 6-(aminomethyl)-N^3-(3-fluoropyridin-4-yl)-N^3′-(2-fluoro-4-((2-oxotetrahydrofuran-3-yl)thio)phenyl)-[1,1'-biphenyl]-3,3′-dicarboxamide]	< 100	< 20				
CN(c1ccc(NC(=O)c2cccc(-c3cc(C(=O)Nc4ccncc4F)ccc3CN)c2)cc1)C1CCOC1=O (stereo not shown) [Cpd 7, 6-(aminomethyl)-N^3-(3-fluoropyridin-4-yl)-N^3′-(4-(methyl(2-oxotetrahydrofuran-3-yl)amino)phenyl)-[1,1′-biphenyl]-3,3′-dicarboxamide]	< 100	< 20	> 60	> 120	> 120	
NCc1ccc(C(=O)Nc2ccncc2F)cc1-c1cccc(C(=O)Nc2ccc(OC3CCOC3=O)cc2)c1 (stereo not shown) [Cpd 3, 6-(aminomethyl)-N^3-(3-fluoropyridin-4-yl)-N^3′-(4-((2-oxotetrahydrofuran-3-yl)oxy)phenyl)-[1,1′-biphenyl]-3,3′-dicarboxamide]	100 to 1000	< 20				
NCc1ccc(C(=O)Nc2ccncc2F)cc1-c1cccc(NC(=O)c2ccc(NC3CCOC3=O)cc2)c1 (stereo not shown) [Cpd 13, 6-(aminomethyl)-N-(3-fluoropyridin-4-yl)-3′-(4-((2-oxotetrahydrofuran-3-yl)amino)benzamido)-[1,1′-biphenyl]-3-carboxamide]	< 100	< 20	> 60			
NCc1ccc(C(=O)Nc2ccncc2F)cc1-c1cccc(C(=O)Nc2ccc(NC3CCOC3=O)cc2)c1 (stereo not shown) [Cpd 5, 6-(aminomethyl)-N^3-(3-fluoropyridin-4-yl)-N^3′-(4-((2-oxotetrahydrofuran-3-yl)amino)phenyl)-[1,1′-biphenyl]-3,3′-dicarboxamide]	< 100	< 20	> 60		> 120	
NCc1ccc(C(=O)Nc2ccncc2F)cc1-c1cccc(C(=O)Nc2ccc(SC3COC(=O)C3)cc2)c1 (stereo not shown) [Cpd 11, 6-(aminomethyl)-N^3-(3-fluoropyridin-4-yl)-N^3′-(4-((2-oxotetrahydrofuran-4-yl)thio)phenyl)-[1,1′-biphenyl]-3,3′-dicarboxamide]	< 100	< 20				

The next lines start with results.

EC50 [1] [nM]	half-life at 1 μM [2] [min]	half-life at 1 μM [3] [min]	half-life at 1 μM [4] [min]	half-life at 1 μM [5] [min]	SMILES	anti-inflammatory activity (BALF WBC and neutrophil count) (male BALB/c mice)
< 100	< 20	> 60	> 120	> 120	NCc1ccc(C(=O)Nc2ccncc2F)cc1-c1cccc(C(=O)Nc2ccc(SCC3CCOC3=O)cc2)c1 (stereo not shown) [Cpd 2, 6-(aminomethyl)-N^3-(3-fluoropyridin-4-yl)-N^3′-(4-(((2-oxotetrahydrofuran-3-yl)methyl)thio)phenyl)-[1,1′-biphenyl]-3,3′-dicarboxamide]	
< 100	< 20	> 60			NCc1ccc(C(=O)Nc2ccncc2F)cc1-c1cccc(NC(=O)c2ccc(SC3CCOC3=O)cc2)c1 (stereo not shown) [Cpd 4, 6-(aminomethyl)-N-(3-fluoropyridin-4-yl)-3′-(4-((2-oxotetrahydrofuran-3-yl)thio)benzamido)-[1,1′-biphenyl]-3-carboxamide]	equivalent to the dexamethasone control
< 100	< 20				CC1CC(Sc2ccc(NC(=O)c3cccc(-c4cc(C(=O)Nc5ccncc5F)ccc4CN)c3)cc2)C(=O)O1 (stereo not shown) [Cpd 9, 6-(aminomethyl)-N^3-(3-fluoropyridin-4-yl)-N^3′-(4-((5-methyl-2-oxotetrahydrofuran-3-yl)thio)phenyl)-[1,1′-biphenyl]-3,3′-dicarboxamide]	
100 to 1000	< 20				NCc1ccc(C(=O)Nc2ccncc2F)cc1-c1cccc(C(=O)Nc2cccc(SC3CCOC3=O)c2)c1 (stereo not shown) [Cpd 8, 6-(aminomethyl)-N^3-(3-fluoropyridin-4-yl)-N^3′-(3-((2-oxotetrahydrofuran-3-yl)thio)phenyl)-[1,1′-biphenyl]-3,3′-dicarboxamide]	
< 100	< 20	> 60			NCc1ccc(C(=O)Nc2ccncc2F)cc1-c1cccc(C(=O)Nc2ccc(SC3CCOC3=O)cc2)c1 (stereo not shown) [Cpd 6, 6-(aminomethyl)-N^3-(3-fluoropyridin-4-yl)-N^3′-(4-((2-oxotetrahydrofuran-3-yl)thio)phenyl)-[1,1′-biphenyl]-3,3′-dicarboxamide]	
